Results: patent publication US20120129870A1, “PIPERAZINYL DERIVATIVES USEFUL AS MODULATORS OF THE NEUROPEPTIDE Y2 RECEPTOR” (priority 2007, published 2012)

Biological target: T1, NPY Y2 receptor (Homo sapiens, UniProt P49146)
T1 sequence (P49146 1-381): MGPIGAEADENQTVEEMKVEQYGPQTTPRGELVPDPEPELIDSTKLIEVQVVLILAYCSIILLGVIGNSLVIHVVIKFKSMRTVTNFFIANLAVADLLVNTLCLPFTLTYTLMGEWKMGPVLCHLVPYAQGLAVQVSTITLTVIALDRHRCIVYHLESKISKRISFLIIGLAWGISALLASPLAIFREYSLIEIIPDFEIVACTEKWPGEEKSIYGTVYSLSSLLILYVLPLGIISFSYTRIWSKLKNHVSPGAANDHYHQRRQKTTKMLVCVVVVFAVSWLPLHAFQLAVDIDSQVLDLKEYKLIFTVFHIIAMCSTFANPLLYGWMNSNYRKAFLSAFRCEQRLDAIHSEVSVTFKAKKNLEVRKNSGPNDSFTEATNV
Experiment: Neuropeptide Y2 radioligand binding assay ([125I]PYY, KAN-Ts membranes)
Parameters: endogenous in cells; host or cells: KAN-Ts cells (membrane preparation)
Settings: for IC50: KAN-Ts membranes endogenously expressing Y2, [125I]PYY (80 pM), 1 h at rt; for Ki: apparent Ki=IC50/(1+C/KD)
Procedure: KAN-Ts endogenously expressing Y2 receptors were used for the radioligand binding assay. Cells were grown to confluence on 150 cm^2 tissue culture plates, washed with phosphate-buffered saline (PBS), and scraped into 50 mL tubes. After centrifugation, the supernatant was aspirated, and the pellets frozen and stored at −80° C. Thawed pellets were homogenized with a polytron tissue grinder for 15 sec in 20 mM Tris-HCl, 5 mM EDTA. The homogenate was centrifuged at 800×g for 5 min and the collected supernatant was recentrifuged at 25000×g for 25 min. The resulting pellet was resuspended in binding buffer (20 mM HEPES, 120 mM NaCl, 0.22 mM KH2PO4, 1.3 mM CaCl2, 0.8 mM MgSO4). Membranes were incubated with [^125I]PYY (80 pM) in the presence or absence of test compound for 1 h at rt. The reaction was stopped by filtration through GF/C filter plates pre-soaked in 0.3% polyethylenimine and subsequently washed with Tris 50 mM, 5 mM EDTA buffer. Plates were dried for 1 h in a 55° C. oven, scintillation fluid was added and the radioactivity was counted in a Packard TopCount. Specific binding to the NPY receptor subtypes was determined by radioactivity that was bound in the presence of […]. Each binding experiment was repeated three to eight times, each in duplicate. IC50 values (i.e. concentration of unlabelled peptide or antagonist required to compete for 50% of specific binding to the radioligand) were calculated using the GraphPad Prism software (GraphPad Software Inc., San Diego Calif.) with a fit to a sigmoidal dose response curve. Apparent K, values were calculated as Ki=IC50/(1+C/KD), where C is concentration of the radioligand.

IC50 [nM]	Ki [nM]	SMILES
2600	–	Cc1cc(NC(=O)C(C)C)ccc1N1CCN(C(c2ccccc2)c2ncco2)CC1 (stereo not shown) [Compound 74, N-{3-Methyl-4-[4-(oxazol-2-yl-phenyl-methyl)-piperazin-1-yl]-phenyl}-isobutyramide]
9800	–	CCC(CC)C(=O)Nc1ccc(N2CCN(C(C#N)c3ccccc3C#N)CC2)c(F)c1 (stereo not shown) [Compound 136, N-(4-{4-[Cyano-(2-cyano-phenyl)-methyl]-piperazin-1-yl}-3-fluoro-phenyl)-2-ethyl-butyramide]
1300	–	CCCC(=O)Nc1ccc(N2CCN(C(c3ccccc3)c3ncco3)CC2)c(F)c1 (stereo not shown) [Compound 100, N-{3-Fluoro-4-[4-(oxazol-2-yl-phenyl-methyl)-piperazin-1-yl]-phenyl}-butyramide]
160	–	CCC(CC)C(=O)Nc1ccc(N2CCN(C(c3ccc(Cl)cc3)c3ncco3)CC2)c(F)c1 (stereo not shown) [Compound 157]
1200	–	O=C(Nc1ccc(N2CCN(C(c3ccccc3)c3ncco3)CC2)c(F)c1)C1CCCCC1 (stereo not shown) [Compound 107, Cyclohexanecarboxylic acid {3-fluoro-4-[4-(oxazol-2-yl-phenyl-methyl)-piperazin-1-yl]-phenyl}-amide]
–	63	CCC(CC)C(=O)Nc1ccc(N2CCN(C(c3ccccc3)c3ccc(Cl)cc3)CC2)c(C#N)c1 (stereo not shown) [Compound 311, N-(4-{4-[(4-Chloro-phenyl)-phenyl-methyl]-piperazin-1-yl}-3-cyano-phenyl)-2-ethyl-butyramide]
–	140	Cc1ccccc1C(c1ccccc1)N1CCN(c2ccc(NC(=O)c3c(C)noc3C)cc2C#N)CC1 (stereo not shown) [Compound 301, N-(3-Cyano-4-{4-[(2-methylphenyl)(phenyl)methyl]piperazin-1-yl}phenyl)-3,5-dimethylisoxazole-4-carboxamide]
450	–	CCC(CC)C(=O)Nc1ccc(N2CCN(C(c3ccccc3)c3ccc(Cl)cc3)CC2)c(F)c1 (stereo not shown) [Compound 13, N-(4-{4-[(4-Chloro-phenyl)-phenyl-methyl]-piperazin-1-yl}-3-fluoro-phenyl)-2-ethyl-butyramide]
450	–	CCC(CC)C(=O)Nc1ccc(N2CCN(C(c3ccccc3)C3C(C)C3(Cl)Cl)CC2)c(F)c1 (stereo not shown) [Compound 115, N-(4-{4-[(2,2-Dichloro-3-methyl-cyclopropyl)-phenyl-methyl]-piperazin-1-yl}-3-fluoro-phenyl)-2-ethyl-butyramide]
290	–	CCC(CC)C(=O)Nc1ccc(N2CCN(C(c3ccc(OC)cc3)C3CC3)CC2)c(F)c1 (stereo not shown) [Compound 84, N-(4-{4-[Cyclopropyl-(4-methoxy-phenyl)-methyl]-piperazin-1-yl}-3-fluoro-phenyl)-2-ethyl-butyramide]
> 10000	–	O=C(Nc1ccc(N2CCN(C(c3ccccc3)c3ncco3)CC2)c(F)c1)C1CCC(F)(F)CC1 (stereo not shown) [Compound 108, 4,4-Difluoro-cyclohexanecarboxylic acid {3-fluoro-4-[4-(oxazol-2-yl-phenyl-methyl)-piperazin-1-yl]-phenyl}-amide]
78	–	CCC(CC)C(=O)Nc1ccc(N2CCN(C(c3ccccc3)C3CC3)CC2)c(F)c1 (stereo not shown) [Compound 53, N-{4-[4-(Cyclopropyl-phenyl-methyl)-piperazin-1-yl]-3-fluoro-phenyl}-2-ethyl-butyramide]
1200	–	CCC(CC)C(=O)Nc1ccc(N2CCN(C(C#N)c3ccccc3OC)CC2)c(F)c1 (stereo not shown) [Compound 137, N-(4-{4-[Cyano-(2-methoxy-phenyl)-methyl]-piperazin-1-yl}-3-fluoro-phenyl)-2-ethyl-butyramide]
32	–	CC[C@@H](C)C(=O)Nc1ccc(N2CCN(C(c3ccccc3)c3ncco3)CC2)c(C#N)c1 (stereo in doubt) [Compound 93, N-{3-Cyano-4-[4-(oxazol-2-yl-phenyl-methyl)-piperazin-1-yl]-phenyl}-2-methyl-butyramide]
41	–	CCC(CC)C(=O)Nc1ccc(N2CCN(C(C3=N[C@H](C(=O)OC)CO3)c3ccccc3)CC2)c(F)c1 (stereo partly shown) [Compound 179, 2-({4-[4-(2-Ethyl-butyrylamino)-2-fluoro-phenyl]-piperazin-1-yl}-phenyl-methyl)-4,5-dihydro-oxazole-4-carboxylic acid methyl ester]
4700	–	Cc1cccc(Nc2ccc(N3CCN(C(c4ccccc4)c4ncco4)CC3)c(F)c2)n1 (stereo not shown) [Compound 62, {3-Fluoro-4-[4-(oxazol-2-yl-phenyl-methyl)-piperazin-1-yl]-phenyl}-(6-methyl-pyridin-2-yl)-amine]

IC50 [nM]	Ki [nM]	SMILES
1550	–	CCN(CC)C(=O)Cc1ccc(N2CCN(C(c3ccccc3)c3ccccc3)CC2)c(F)c1 [Compound 51, 2-[4-(4-Benzhydryl-piperazin-1-yl)-3-fluoro-phenyl]-N,N-diethyl-acetamide]
> 10000	–	O=C(NC1CCCC1)c1ccc(N2CCN(C(c3ccccc3)c3ncco3)CC2)c(F)c1 (stereo not shown) [Compound 49, N-Cyclopentyl-3-fluoro-4-[4-(oxazol-2-yl-phenyl-methyl)-piperazin-1-yl]-benzamide]
> 10000	–	Cn1ccnc1Nc1ccc(N2CCN(C(c3ccccc3)c3ncco3)CC2)c(F)c1 (stereo not shown) [Compound 58, {3-Fluoro-4-[4-(oxazol-2-yl-phenyl-methyl)-piperazin-1-yl]-phenyl}-(1-methyl-1H-imidazol-2-yl)-amine]
340	–	O=C(Nc1ccc(N2CCN(C(c3ccccc3)c3ncco3)CC2)c(F)c1)C1CCCC1 (single isomer, unassigned) [Compound 126, Cyclopentanecarboxylic acid {3-fluoro-4-[4-(oxazol-2-yl-phenyl-methyl)-piperazin-1-yl]-phenyl}-amide]
170	–	CCC(CC)C(=O)Nc1ccc(N2CCN(C(c3ccccc3)c3nccn3C)CC2)c(F)c1 (stereo not shown) [Compound 64, 2-Ethyl-N-(3-fluoro-4-{4-[(1-methyl-1H-imidazol-2-yl)-phenyl-methyl]-piperazin-1-yl}-phenyl)-butyramide]
> 5000	–	O=C(Nc1ccc(N2CCN(C(c3ccc(F)cc3)c3ncco3)CC2)c(F)c1)[C@@H]1CCOC1 (stereo in doubt) [Compound 127, Tetrahydro-furan-3-carboxylic acid (3-fluoro-4-{4-[(4-fluoro-phenyl)-oxazol-2-yl-methyl]-piperazin-1-yl}-phenyl)-amide]
720	–	CCC(CC)C(=O)Nc1ccc(N2CCN(C(c3ccc(Cl)cc3)C3CC3)CC2)c(F)c1 (stereo not shown) [Compound 102, N-(4-{4-[(4-Chloro-phenyl)-cyclopropyl-methyl]-piperazin-1-yl}-3-fluoro-phenyl)-2-ethyl-butyramide]
–	84	Cc1noc(C)c1C(=O)Nc1ccc(N2CCN(C(c3ccccc3)c3ccc(Cl)cc3)CC2)c(C#N)c1 (stereo not shown) [Compound 312, 3,5-Dimethyl-isoxazole-4-carboxylic acid (4-{4-[(4-chloro-phenyl)-phenyl-methyl]-piperazin-1-yl}-3-cyano-phenyl)-amide]
320	–	CC(C)C(=O)Nc1ccc(N2CCN(C(c3ccccc3)c3ncco3)CC2)c(F)c1 (stereo not shown) [Compound 72, N-{3-Fluoro-4-[4-(oxazol-2-yl-phenyl-methyl)-piperazin-1-yl]-phenyl}-isobutyramide]
> 10000	–	Cc1ccnc(Nc2ccc(N3CCN(C(c4ccccc4)c4ncco4)CC3)c(F)c2)n1 (stereo not shown) [Compound 61, {3-Fluoro-4-[4-(oxazol-2-yl-phenyl-methyl)-piperazin-1-yl]-phenyl}-(4-methyl-pyrimidin-2-yl)-amine]
> 10000	–	CCC(CC)C(=O)Nc1ccc(N2CCN(C(C#N)c3ccccn3)CC2)c(F)c1 (stereo not shown) [Compound 138, N-{4-[4-(Cyano-pyridin-2-yl-methyl)-piperazin-1-yl]-3-fluoro-phenyl}-2-ethyl-butyramide]
170	–	N#Cc1cc(NC(=O)C2CC2)ccc1N1CCN(C(c2ccccc2)c2ncco2)CC1 (stereo not shown) [Compound 101, Cyclopropanecarboxylic acid {3-cyano-4-[4-(oxazol-2-yl-phenyl-methyl)-piperazin-1-yl]-phenyl}-amide]
150	–	Cc1ccccc1C(=O)Nc1ccc(N2CCN(C(c3ccccc3)c3ncco3)CC2)c(C#N)c1 (stereo not shown) [Compound 96, N-{3-Cyano-4-[4-(oxazol-2-yl-phenyl-methyl)-piperazin-1-yl]-phenyl}-2-methyl-benzamide]
430	–	Cc1nc(C(c2ccc(OC(F)(F)F)cc2)N2CCN(c3ccc(NC(=O)C4CCOC4)cc3F)CC2)no1 (stereo not shown) [Compound 280]
–	250	CN(C)CC(=O)Nc1ccc(N2CCN(C(c3ccccc3)c3ccccc3)CC2)c(C#N)c1 [Compound 300, N-[4-(4-Benzhydryl-piperazin-1-yl)-3-cyano-phenyl]-2-dimethylamino-acetamide]
